Measurements reported in PubChem BioAssay AID588841 (The Scripps Research Institute Molecular Screening Center, 2011).
Active and inactive are the calls of the source.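 How the source made its calls: active means EC50 at or below 10 µM; inactive means the rest.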

Molecular target: cAMP-dependent protein kinase type II-beta regulatory subunit (Homo sapiens) + cAMP-dependent protein kinase catalytic subunit beta (Mus musculus) (UniProt P31323+P68181)
Test: compounds dissociating PKAc from R2B subunit – biochemical, fluorescence polarization, powder samples, late-stage follow-up (AID 588841)
Details: PKA-R2B holoenzyme dissociation, Cy5-IP20 fluorescence polarization

Structure (SMILES)	EC50
Cc1ccc(COc2ccsc2C(=O)O)cc1	> 100 µM (inactive)
O=C(O)c1sccc1SCc1ccc(Cl)c(Cl)c1	> 100 µM (inactive)
COC(=O)c1sc2ncccc2c1OCc1ccccc1Cl	> 100 µM (inactive)
O=C(O)c1sccc1SCc1ccc(Cl)cc1Cl	> 100 µM (inactive)
O=C(O)c1sccc1NC(=O)c1c(Cl)cccc1Cl	> 100 µM (inactive)
O=C(O)c1sc2ncccc2c1OCc1ccccc1	> 100 µM (inactive)
CC(C)(C)c1ccc(COc2ccsc2C(=O)O)cc1	> 100 µM (inactive)
Cc1csc(C(=O)O)c1NC(=O)c1ccc(F)cc1	> 100 µM (inactive)
COC(=O)c1sc2ncccc2c1OCc1ccc(Cl)cc1Cl	> 100 µM (inactive)
